Measured values reported in patent US9394544B2, “Ameliorating oxidative stress in neurodegenerative disease via Nox1 targeting” (University of Central Florida Research Foundation, Inc., priority 2013, dated 2016).
Read-outs that look alike come from different tables or passages of the source.

Experiments:
N27 cells = experiment: NBT assay of 6-OHDA-mediated ROS generation in N27 dopaminergic cells; assay type: cell-based, rat; conditions: 6 h; for 6-OHDA-mediated ROS generation (NBT assay): inhibitor pre-treatment 30 min (DPI 0.1, 0.5, 1.0 μM; apocynin 0.1, 1.0, 10, 100 μM), then 6-OHDA 100 μM
Description: N27 cells were pre-treated with various concentrations of DPI (0.1, 0.5, and 1.0 μM) for 30 min and then 6-OHDA (100 μM) was added. Superoxide was measured using the nitroblue tetrazolium (NBT) assay at 6 h post 6-OHDA.
Cells were grown in RPMI 1640 containing 10% FBS, 100 IU/1 penicillin, and 10 g/ml streptomycin at 37° C. with 5% CO2 supply in humidified atmosphere. For experiments, the cells were plated on polystyrene tissue culture dishes at a density of 2×10^4 cells/well in 96-well culture plates, 1×10^6 cells/well in 24-well culture plates, 1×10^6 cells/well in 6-well culture plates, or 2×10^6 cells/100 mm plate. After 24 h, the cells were fed with fresh medium and treated with 6-OHDA and/or other drugs.
6-OHDA treated cells were incubated for 1 h at 37° C. with a filtered solution of 0.3 mg/ml of NBT in complete medium. The cells were washed once with PBS and fixed with 0.4% paraformaldehyde for light microscopy. To quantify NBT precipitation, cells were washed twice with 70% methanol and fixed for 5 min in 100% methanol. After the wells were allowed to dry in the air, the formazan is solubilized with 120 μl 2M K OH and 140 μl DMSO. The OD was read in an ELISA plate reader at 590 nm.

Nox1 [1] = experiment: Nox1 expression (RT-PCR, immunoblot) in N27 cells exposed to toxins; assay type: cell-based, rat
Text: The NADPH oxidase is a multi-subunit enzyme that consists of the catalytic subunits (Nox isoforms) together with the regulatory subunits including p22phox, p47phox, p40phox, p67phox, Nox organizer 1 (Noxo1), Nox activator 1 (Noxa1), and small GTPase Rac1. In order to test whether dopaminergic (DA) cells are equipped with the NOX components, N27, a well-established rat DA cell line was examined (Prasad et al. 1994). The mRNAs encoding each Nox isoform and regulatory subunits were detected using RT-PCR. Since transcriptional induction of Nox1 and Nox4 has already been reported in several tissues under a variety of stimuli, transcripts were determined in both nontreated and 6-hydroxydopamine (6-OHDA), a DA neurodegenerative compound, treated DA cells. ROS generation as induced by 6-OHDA (100 μM) and subsequent cell death was observed. All Nox isoforms (Nox1, Nox2, Nox4, Duox1 and Duox2) except Nox3 and Nox5 were detected (FIG. 1A). […] Mitochondria, which have long been considered as a major source of ROS, play a key role in Nox1-mediated superoxide generation (Desouki et al. 2005). […] Cytoplasmic regulatory subunits including p47phox, Noxa1, and Noxo1 were constitutively expressed in DA cells as well (FIG. 1A). Noxa1 and Noxo1 are homologues of p67phox and p47phox, respectively. They are involved in Nox1-mediated superoxide generation (Banfi et al. 2003, Geiszt et al. 2003). […] The activation of a small GTPase Rac1 is indispensable for Nox1 and Nox2 activation (Bokoch 2002). GTP-bound active Rac1 was measured in DA cells treated with 6-OHDA for various duration from 1 h to 6 h.
Total RNA was extracted from N27 cells using Trizol reagent (Invitrogen, Carlsbad, Calif.). Reverse transcription was performed for 1 h at 42° C. with 1 μg of total RNA using 20 unit/μl of AMV reverse transcriptase (Roche Applied Science, Indianapolis, Ind.), and oligo-p(dT)15 as a primer. The samples were then heated at 99° C. for 5 min to terminate the reaction. The cDNA obtained from 1 μg total RNA was used as a template for PCR amplification. Oligonucleotide primers were designed based on Genebank entries for rat NOX1 (sense, 5′-[…]-3′ SEQ ID NO. 1; antisense, 5′-[…]-3′ SEQ ID NO. 2), rat NOX2 (sense, 5′-[…]-3′ SEQ ID NO. 3; antisense, 5′-[…]-3′ SEQ ID NO. 4), rat NOX4 (sense, 5′-[…]-3′ SEQ ID NO. 5; antisense, 5′-[…]-3′ SEQ ID NO. 6), rat NOXA1 (sense, 5′-[…]-3′ SEQ ID NO. 7; antisense, 5′-[…]-3′ SEQ ID NO. 8), rat NOXO1 (sense, 5′-[…]-3′ SEQ ID NO. 9; antisense, 5′-[…]-3′ SEQ ID NO. 10), rat p47 (sense, 5′-[…]-3′ SEQ ID NO 11; antisense, 5′-[…]-3′ SEQ ID NO. 12), rat Duox1 (sense, 5′-[…]-3′ SEQ ID NO. 13; antisense, 5′-[…]-3′SEQ ID NO. 14), rat Duox2 (sense, 5′-[…]-3′ SEQ ID NO. 15; antisense, 5′-[…]-3′ SEQ ID NO. 16) and rat GAPDH (sense, 5′-[…]-3′ SEQ ID NO. 17; antisense, 5′-[…]-3′ SEQ ID NO. 18). PCR mixes contained 10 μl of 2×PCR buffer, 1.25 mM of each dNTP, 10 pmol of each forward and reverse primer, and 2.5 units of Taq polymerase in the final volume of 20 μl. Amplification was performed in 35 cycles at 60° C., 30 sec; 72° C., 1 min; 94° C., 30 sec. After the last cycle, all samples were incubated for an additional 10 min at 72° C. for final extension step. PCR fragments were analyzed on 1.2% agarose gel in 0.5×TAE containing ethidium bromide. Amplification of GAPDH, a relatively invariant internal reference RNA, was performed in parallel, and cDNA amounts were normalized against GAPDH mRNA levels. The primer set specifically recognized only the gene of interest as indicated by amplification of a single band of expected size. […]

Nox1 [2] = experiment: Nox1 expression in SNDA neurons of MPTP-treated mice; assay type: in vivo
Nox1 [3] = experiment: Nuclear localization of Nox1-EGFP in N27 cells (confocal microscopy); assay type: cell-based, rat; conditions: N27 cells expressing Nox1-EGFP; 6-OHDA 50 μM 6 h, rotenone 5 μM 18 h
Text: The observation that Nox1 was induced by a variety of oxidative stimuli in vitro led one to test Nox1 expression in the rat substantia nigra DA (SNDA) neurons administered with 6-OHDA. […] Neither astrocytes nor microglia expressed Nox1, as verified by co-immunostaining of Nox1 with GFAP (astrocytes) or CD11b (microglia) (FIG. 3B). Increased Nox1 transcript was found in the SN as shown by in situ hybridization (FIG. 3C). […] As early as 3 days post 6-OHDA injection, Nox1 expression was increased in the nucleus and in the cytoplasm of DA neurons (FIG. 4A). […] Nuclear expression of the Nox1/Rac1 complex was further analyzed in N27 cells after treatment with 6-OHDA. First, activated Rac1 was detected by immunoprecipitation of nuclear extracts of N27 cells after a 24 h treatment with 6-OHDA. […] Next, it was established that N27 cells stably expressing Nox1 tagged with EGFP at the C-terminus. […] To examine whether nuclear translocation of Nox1 in dopaminergic cells is observed under different conditions that cause dopaminergic neuronal death, mitochondrial respiratory complex inhibitor, rotenone, was tested.

Which “lowest concentration significantly reducing 6-OHDA-mediated ROS generation” value (N27 cells; 30 min pre-treatment, 6-OHDA 100 μM) does the source give for `c1ccc2c(c1)[I+]c1ccccc1-2` [DPI, diphenyleneiodonium] here?
Its value is 0.1 µM.

What about the “6-OHDA-mediated ROS generation (NBT assay)” value (N27 cells) of the same compound?
The value was “significantly reduced”.

`N#CC(C#N)=NNc1ccc(OC(F)(F)F)cc1` [FCCP] was tested. Which “mRNA and protein levels of Nox1” value (Nox1 [1]) did it give?
Its value is “elevated”.

`OO` [H2O2] was tested. Which “mRNA and protein levels of Nox1” value (Nox1 [1]; N27 cells) did it give?
Its value is “increase”.

With `CN1CC=C(c2ccccc2)CC1` [MPTP, 1-methyl-4-phenyl-1,2,3,6-tetrahydropyridine] as the compound, how does the “Nox1 expression in the SNDA neurons” value (Nox1 [2]) read?
Its value is “Increased Nox1 expression”.

For `COc1cc(C(C)=O)ccc1O` [apocynin], which “6-OHDA-mediated ROS generation (NBT assay)” value (N27 cells) is on record?
The value was “significantly diminished”.

With `CC(C)(C)c1ccc(CSc2cnn(C(C)(C)C)c(=O)c2Cl)cc1` [pyridaben] as the compound, how does the “mRNA and protein levels of Nox1” value (Nox1 [1]; N27 cells) read?
Its value is “elevated”.

`C=C(C)[C@H]1Cc2c(ccc3c2O[C@@H]2COc4cc(OC)c(OC)cc4[C@@H]2C3=O)O1` [rotenone] was tested. Which “mRNA and protein levels of Nox1” value (Nox1 [1]; N27 cells) did it give?
The value was “elevated”.

And the “nuclear localization of Nox1” value (Nox1 [3])?
The value was “led to nuclear localization of Nox1”.

For antimycin A, which “mRNA and protein levels of Nox1” value (Nox1 [1]; N27 cells) is on record?
Its value is “elevated”.
